Test results reported in publication PMC12669672, “Structural insights into selective and dual antagonism of EP2 and EP4 prostaglandin receptors” (The EMBO Journal, 2025).
“And” between values parts separate entries of the source, which are not always exact repeats. Equal entries are not always repeated. Where two headings read alike, the source gives them in different places.

Legend:
EP4 I317A = biological target: T1, EP4 I317A (Homo sapiens, UniProt P35408, I317A); assay: GloSensor cAMP assay, antagonism of PGE2-induced cAMP; assay type: cell-based; conditions: for cAMP activity (∆pIC50 from EP4 WT): TG6-129, I317A
T1 construct: The full-length EP2 or EP4 was cloned into the pcDNA3.1 vector; FLAG (N); expressed in transfected cells; host or cells: AD293 cells

EP2 S28A = biological target: T2, EP2 S28A (Homo sapiens, UniProt P43116, S28A); assay: as above; assay type: cell-based; conditions: for cAMP activity (∆pIC50 from EP2 WT): TG6-129, S28A
T2 construct: The full-length EP2 or EP4 was cloned into the pcDNA3.1 vector; FLAG (N); expressed in transfected cells; host or cells: AD293 cells
Procedure, shortened: (§1)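 Read-out is GloSensor luminescence from AD293 cells co-expressing FLAG-tagged EP2 variant and GloSensor22F biosensor, transfected at a 1:1 plasmid ratio. Cells were plated at 4000 per well in CO2-independent medium containing 2% cAMP reagent, incubated 1 h at 37 °C, then read.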

EP2 E23A = biological target: T3, EP2 E23A (Homo sapiens, UniProt P43116, E23A); assay: as above; assay type: cell-based
T3 construct: The full-length EP2 or EP4 was cloned into the pcDNA3.1 vector; FLAG (N); expressed in transfected cells; host or cells: AD293 cells
Procedure, shortened: as §1

EP2 = biological target: EP2; set-up: method as in Ganesh et al, 2013; conditions: antagonism towards EP2; ref Ganesh et al, 2013; cited from earlier work
EP4 = biological target: EP4; set-up: method as in Ganesh et al, 2013; conditions: antagonism towards EP4; ref Ganesh et al, 2013; cited from earlier work
[1] = biological target: T4, constitutively active EP4 I317A (Homo sapiens, UniProt P35408, I317A); assay: GloSensor cAMP assay, inhibition of constitutive activity; assay type: cell-based
T4 construct: The full-length EP2 or EP4 was cloned into the pcDNA3.1 vector (Invitrogen), incorporating an N-terminal FLAG tag; expressed in transfected cells; host or cells: AD293

[2] = biological target: T5, constitutively active EP2 S28A (Homo sapiens, UniProt P43116, S28A); assay: as above; assay type: cell-based
T5 construct: The full-length EP2 or EP4 was cloned into the pcDNA3.1 vector; FLAG (N); expressed in transfected cells; host or cells: AD293 cells
Procedure, shortened: as §1

[3] = biological target: T6, constitutively active EP2 E23A (Homo sapiens, UniProt P43116, E23A); assay: as above; assay type: cell-based
T6 construct: The full-length EP2 or EP4 was cloned into the pcDNA3.1 vector; FLAG (N); expressed in transfected cells; host or cells: AD293 cells
Procedure, shortened: as §1

[4] = 1 h, TG6-129 log([M]) -12, read-out: % cAMP activity (normalized to WT)
[5] = no PGE2, pIC50 mutant - pIC50 WT, mean

T6 sequence (P43116 whole entry E23A): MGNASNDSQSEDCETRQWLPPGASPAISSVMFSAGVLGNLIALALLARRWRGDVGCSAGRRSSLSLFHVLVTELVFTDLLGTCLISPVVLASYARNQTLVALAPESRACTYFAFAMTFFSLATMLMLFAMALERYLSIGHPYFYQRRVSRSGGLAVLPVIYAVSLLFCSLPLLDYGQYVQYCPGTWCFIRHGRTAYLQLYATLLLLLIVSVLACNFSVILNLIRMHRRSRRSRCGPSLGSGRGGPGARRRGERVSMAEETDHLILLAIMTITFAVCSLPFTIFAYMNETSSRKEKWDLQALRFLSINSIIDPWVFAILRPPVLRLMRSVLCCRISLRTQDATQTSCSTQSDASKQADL
T3 sequence (P43116 whole entry E23A): as above
T1 sequence (P35408 whole entry I317A): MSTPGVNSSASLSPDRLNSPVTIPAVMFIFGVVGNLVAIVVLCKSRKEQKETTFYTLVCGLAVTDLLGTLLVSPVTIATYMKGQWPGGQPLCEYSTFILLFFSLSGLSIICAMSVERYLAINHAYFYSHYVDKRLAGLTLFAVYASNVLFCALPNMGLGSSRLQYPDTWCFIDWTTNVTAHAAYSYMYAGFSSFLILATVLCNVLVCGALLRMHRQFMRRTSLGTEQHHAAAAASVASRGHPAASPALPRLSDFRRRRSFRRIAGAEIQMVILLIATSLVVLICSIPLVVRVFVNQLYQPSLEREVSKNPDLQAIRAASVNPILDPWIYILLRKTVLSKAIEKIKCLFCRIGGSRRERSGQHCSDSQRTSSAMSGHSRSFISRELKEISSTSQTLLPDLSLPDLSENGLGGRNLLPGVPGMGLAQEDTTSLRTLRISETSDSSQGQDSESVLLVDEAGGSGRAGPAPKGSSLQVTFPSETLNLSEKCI
T4 sequence (P35408 whole entry I317A): as above
T5 sequence (P43116 whole entry S28A): as the sequence (P43116 whole entry E23A) above, with A23E, S28A counted along it
T2 sequence (P43116 whole entry S28A): as the sequence (P43116 whole entry E23A) above, with A23E, S28A counted along it

Compound CCc1nnc(NS(=O)(=O)c2ccc(NC(=S)NC(=O)/C=C/c3ccc(F)cc3)cc2)s1 [TG6-129] has an IC50 (EP4 I317A) of 10700 nM, a remaining activity at 100 µM (EP4 I317A; 1 h, TG6-129 log([M]) -4.00, read-out: % cAMP activity (normalized to WT)) of 16.3% and a remaining activity at […] (EP4 I317A; 1 h, TG6-129 log([M]) -4.70, read-out: % cAMP activity (normalized to WT)) of 19.5%. It also gave a remaining activity at […] (EP4 I317A; 1 h, TG6-129 log([M]) -5.40, read-out: % cAMP activity (normalized to WT)) of 47.7%, a remaining activity at […] (EP4 I317A; 1 h, TG6-129 log([M]) -6.10, read-out: % cAMP activity (normalized to WT)) of 54.4% and a remaining activity at 0.1585 µM (EP4 I317A; 1 h, TG6-129 log([M]) -6.80, read-out: % cAMP activity (normalized to WT)) of 59.7%. The remaining activity at 0.03236 µM (EP4 I317A; 1 h, TG6-129 log([M]) -7.49, read-out: % cAMP activity (normalized to WT)) was 57.3%, the remaining activity at 0.006457 µM (EP4 I317A; 1 h, TG6-129 log([M]) -8.19, read-out: % cAMP activity (normalized to WT)) was 60.6% and the remaining activity at 0.001288 µM (EP4 I317A; 1 h, TG6-129 log([M]) -8.89, read-out: % cAMP activity (normalized to WT)) was 53.5%. The “cAMP activity (∆pIC50 from EP4 WT)” value (EP4 I317A; Mean) was 0.074, the “cAMP activity (∆pIC50 from EP4 WT)” value (EP4 I317A; single experiments 1st-3rd) was 0.047 and -0.037 and 0.211 and the IC50 (EP2 S28A) was 36.3 nM. The remaining activity at 10 pM (EP2 S28A; 1 h, TG6-129 log([M]) -11, read-out: % cAMP activity (normalized to WT)) was 109%, the remaining activity at 1 pM (EP2 S28A; [4]) was 106% and the “cAMP activity (∆pIC50 from EP2 WT)” value (EP2 S28A; Mean) was 0.282. The “cAMP activity (∆pIC50 from EP2 WT)” value (EP2 S28A; single experiments 1st-3rd) was 0.159 and 0.319 and 0.367, the IC50 (EP2 E23A) was 20.4 nM and the remaining activity at 1 pM (EP2 E23A; [4]) was 74.1%. The “cAMP activity (∆pIC50 from EP2 WT)” value (EP2 E23A; TG6-129, E23A, Mean) was 0.563, the Kd (EP2) was 8.8 nM and the Kd (EP4) was 3900 nM. It also gave an IC50 [1] of 3550 nM, a remaining activity at 100 µM ([1]; 1 h, TG6-129 log([M]) -4.00, EP4-I317A, read-out: % cAMP activity (normalized to WT)) of 6.11% and a remaining activity at […] ([1]; 1 h, TG6-129 log([M]) -4.70, EP4-I317A, read-out: % cAMP activity (normalized to WT)) of 11.7%. The remaining activity at […] ([1]; 1 h, TG6-129 log([M]) -5.40, EP4-I317A, read-out: % cAMP activity (normalized to WT)) was 33.6%, the remaining activity at […] ([1]; 1 h, TG6-129 log([M]) -6.10, EP4-I317A, read-out: % cAMP activity (normalized to WT)) was 68.9% and the remaining activity at 0.1585 µM ([1]; 1 h, TG6-129 log([M]) -6.80, EP4-I317A, read-out: % cAMP activity (normalized to WT)) was 80.8%. For the same compound, the remaining activity at 0.03236 µM ([1]; 1 h, TG6-129 log([M]) -7.49, EP4-I317A, read-out: % cAMP activity (normalized to WT)) was 80.3%, the remaining activity at 0.006457 µM ([1]; 1 h, TG6-129 log([M]) -8.19, EP4-I317A, read-out: % cAMP activity (normalized to WT)) was 83% and the remaining activity at 0.001288 µM ([1]; 1 h, TG6-129 log([M]) -8.89, EP4-I317A, read-out: % cAMP activity (normalized to WT)) was 79.7%. The “TG6-129 cAMP activity (∆pIC50 from EP4 WT), Mean” value ([1]; I317A, Mean) was 0.256, the ΔpIC50 [1, 5] was 0.26 ± 0.11 and the IC50 [2] was 38.9 nM. It also gave a remaining activity at 10 µM ([2]; 1 h, TG6-129 log([M]) -5, EP2-S28A, read-out: % cAMP activity (normalized to WT)) of 8.3%, a remaining activity at 1 µM ([2]; 1 h, TG6-129 log([M]) -6, EP2-S28A, read-out: % cAMP activity (normalized to WT)) of 8.69% and a remaining activity at 0.001 µM ([2]; 1 h, TG6-129 log([M]) -9, EP2-S28A, read-out: % cAMP activity (normalized to WT)) of 255%. For the same compound, the “TG6-129 cAMP activity (∆pIC50 from EP2 WT), Mean” value ([2]; S28A, Mean) was 0.422, the “TG6-129 cAMP activity (∆pIC50 from EP2 WT)” value ([2]; S28A, single experiments 1st-3rd) was 0.401 and 0.405 and 0.460 and the ΔpIC50 [2, 5] was 0.42 ± 0.02. It also gave an IC50 [3] of 31.6 nM, a remaining activity at 10 µM ([3]; 1 h, TG6-129 log([M]) -5, EP2-E23A, read-out: % cAMP activity (normalized to WT)) of 5.62% and a remaining activity at 1 µM ([3]; 1 h, TG6-129 log([M]) -6, EP2-E23A, read-out: % cAMP activity (normalized to WT)) of 4.15%. It also gave a remaining activity at 0.1 µM ([3]; 1 h, TG6-129 log([M]) -7, EP2-E23A, read-out: % cAMP activity (normalized to WT)) of 17.9%, a remaining activity at 0.001 µM ([3]; 1 h, TG6-129 log([M]) -9, EP2-E23A, read-out: % cAMP activity (normalized to WT)) of 93.8% and a remaining activity at 0.0001 µM ([3]; 1 h, TG6-129 log([M]) -10, EP2-E23A, read-out: % cAMP activity (normalized to WT)) of 108%. For the same compound, the remaining activity at 10 pM ([3]; 1 h, TG6-129 log([M]) -11, EP2-E23A, read-out: % cAMP activity (normalized to WT)) was 111%, the remaining activity at 1 pM ([3]; 1 h, TG6-129 log([M]) -12, EP2-E23A, read-out: % cAMP activity (normalized to WT)) was 98% and the “TG6-129 cAMP activity (∆pIC50 from EP2 WT), Mean” value ([3]; E23A, Mean) was 0.363. The “TG6-129 cAMP activity (∆pIC50 from EP2 WT)” value ([3]; E23A, single experiments 1st-3rd) was 0.381 and 0.341 and 0.367 and the ΔpIC50 [3, 5] was 0.36 ± 0.01.
